Consider 24 compounds from patent US20200289514A1, “Novel Pyrazolo Pyrimidine Derivatives” (Novartis AG, priority 2015, published 2020).

What is called IC50 is the concentration needed to halve the response being measured.

One experiment has as its system Human IL2 promoter. Description: Human IL2 promoter reporter gene assay (RGA) in Jurkat cells. Type of experiment: cell-based. The settings on record: Jurkat clone K22 290_H23, anti-CD28 mAb + PMA, 5.5 h. As for the experimental part: Human IL2 Promoter Reporter Gene Assay (RGA) in Jurkat Cells
The transfected Jurkat clone K22 290_H23 was propagated in RPMI 1640 supplemented with 10% heat inactivated fetal calf serum, 50 μM 2-mercaptoethanol and 1 mg/ml Geneticin. The cell concentration should not exceed 1×10e6/ml during culturing. The cells should not exceed passage 30. Prior to the assay the cells were washed and prepared to the concentration of 2×10e6 cells/ml.
Compound dilutions were made as 2×-concentrated solutions then diluted ½ by addition to cells. Two hundred and fifty μl of compound dilution and 250 μl of cells were mixed together in wells of a 96-deep well plate. Cells/compounds premix were incubated 30 min at 37° C. and 5% CO2 directly in the deep well plate.
After pre-incubation of cells with compounds, cells were stimulated with anti-CD28 mAb (clone 15E8) at 3 μg/ml+PMA at 1 μg/ml. Both co-stimulants were diluted in culture medium at a 10×-concentrated solution. 10 μl of co-stimulants were pipetted into the white 96-well plates and 100 μl of cell/compound mix was immediately added in duplicates. The cells were stimulated for 5.5 h at 37° C. and 5% CO2.
After cell stimulation, 50 μl of BriteLitePlus reagent (Perkin Elmer) was added to each well and the bioluminescence was measured with a Wallac EnVision reader (Perkin Elmer).
Background: A reporter such as luciferase makes a cellular process visible.

In experiment [1] the target is T1, C-domain of MALT1 (amino acids 329-824) (Homo sapiens, UniProt Q9UDY8).
T1 sequence (Q9UDY8 329-824): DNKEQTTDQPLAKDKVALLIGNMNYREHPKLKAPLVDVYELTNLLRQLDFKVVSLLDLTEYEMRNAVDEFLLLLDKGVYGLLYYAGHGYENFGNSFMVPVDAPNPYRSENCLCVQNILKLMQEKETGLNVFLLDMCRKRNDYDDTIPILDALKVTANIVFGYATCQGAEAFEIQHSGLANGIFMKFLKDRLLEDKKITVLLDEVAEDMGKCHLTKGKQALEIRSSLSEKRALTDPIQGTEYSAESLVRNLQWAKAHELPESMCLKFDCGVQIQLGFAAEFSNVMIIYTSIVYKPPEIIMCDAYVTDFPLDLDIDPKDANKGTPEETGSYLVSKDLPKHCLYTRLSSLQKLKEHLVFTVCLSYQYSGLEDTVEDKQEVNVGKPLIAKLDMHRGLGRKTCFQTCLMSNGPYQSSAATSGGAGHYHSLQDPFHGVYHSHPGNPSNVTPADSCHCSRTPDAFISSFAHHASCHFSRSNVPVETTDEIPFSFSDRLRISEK
Description: MALT1 Biochemical Assay - Version 1 (fluorescence lifetime).
Description: The readout parameter is the increase of fluorescence lifetime over time, proportional to enzyme activity.
The assay employs a short peptide substrate labeled with the single fluorophore PT14 as a fluorescence lifetime probe sensitive to the cleavage state of the substrate (PT14: 6-(9-oxo-9H-acridin-10-yl)-hexanoate, AssayMetrics, UK). […] Test compounds were dissolved in 100% (v/v) DMSO or a mixture containing 90% (v/v) DMSO and 10% (v/v) H2O at a stock concentration of 100 mM. Serial dilutions of test compounds were prepared using either 100% (v/v) DMSO or a mixture containing 90% (v/v) DMSO and 10% (v/v) H2O.
where y is the %-inhibition at the inhibitor concentration, x. A1 is the lowest inhibition value, and A2 the maximum inhibition value. The exponent, p, is the Hill coefficient.

`CO[C@@H](C)c1c(NC(=O)Nc2cncc(C#N)c2)cnc2cc(F)nn12` [Example 12, (S)-1-(5-cyanopyridin-3-yl)-3-(2-fluoro-7-(1-methoxyethyl)pyrazolo[1,5-a]pyrimidin-6-yl)urea]: the results for the IC50 (with Human IL2 promoter; in experiment [1]) were 73 nM and 31 nM, respectively.
For `CO[C@@H](C)c1c(NC(=O)Nc2cnc(-n3nccn3)c(C#N)c2)cnc2cc(Cl)nn12` [Example 11, (S)-1-(2-chloro-7-(1-methoxyethyl)pyrazolo[1,5-a]pyrimidin-6-yl)-3-(5-cyano-6-(2H-1,2,3-triazol-2-yl)pyridin-3-yl)urea] the same measures were 12 nM and 2 nM.
With `CO[C@@H](C)c1c(NC(=O)Nc2cnc(C(=O)N3CCCC3)c(Cl)c2)cnc2cc(Cl)nn12` [Example 33, (S)-1-(5-chloro-6-(pyrrolidine-1-carbonyl)pyridin-3-yl)-3-(2-chloro-7-(1-methoxyethyl)pyrazolo [1,5-a]pyrimidin-6-yl)urea], the 50% inhibitory concentration (IC50) in the experiment on Human IL2 promoter is 44 nM; in experiment [1] it was 11 nM.
For `COc1ncc(NC(=O)Nc2cnc3cc(Cl)nn3c2[C@@H](OC)[C@H](C)OC)cc1C#N` [Example 36, 1-(2-chloro-7-((1R, 2S)-1,2-dimethoxypropyl)pyrazolo[1,5-a]pyrimidin-6-yl)-3-(5-cyano-6-methoxypyridin-3-yl)urea], the IC50 stood at 35 nM in the experiment on Human IL2 promoter and 3 nM in experiment [1].
As for `CO[C@@H](C)[C@H](OC)c1c(NC(=O)Nc2cnc(-n3nccn3)c(Cl)c2)cnc2cc(Cl)nn12` [Example 10, 1-(5-chloro-6-(2H-1,2,3-triazol-2-yl)pyridin-3-yl)-3-(2-chloro-7-((1R, 2S)-1,2-dimethoxypropyl)pyrazolo[1,5-a]pyrimidin-6-yl) urea], the IC50 with Human IL2 promoter came out at 22 nM.
Take `COc1ncc(NC(=O)Nc2cnc3cc(Cl)nn3c2[C@H](C)O[C@H]2CCN(C(C)=O)C2)cc1C#N` [Example 26, 1-(7-((S)-1-(((S)-1-acetylpyrrolidin-3-yl)oxy)ethyl)-2-chloropyrazolo[1,5-a]pyrimidin-6-yl)-3-(5-cyano-6-methoxypyridin-3-yl)urea]: the IC50 with Human IL2 promoter amounted to 113 nM; in experiment [1] it was 22 nM.
For `CO[C@@H](C)c1c(NC(=O)Nc2ccnc(C(F)(F)F)c2)cnc2cc(Cl)nn12` [Example 3, (S)-1-(2-chloro-7-(1-methoxyethyl)pyrazolo[1,5-a]pyrimidin-6-yl)-3-(2-(trifluoromethyl)pyridin-4-yl)urea], in the experiment with Human IL2 promoter, the IC50 was 36 nM.
In the case of `CO[C@@H](C)c1c(NC(=O)Nc2cncc(Cl)c2)cnc2cc(F)nn12` [Example 32, (S)-1-(5-chloro-pyridin-3-yl)-3-(2-fluoro-7-(1-methoxyethyl)pyrazolo [1,5-a]pyrimidin-6-yl)urea], the IC50 in the experiment on Human IL2 promoter was found to be 40 nM; in experiment [1], 11 nM.
Take `COc1ncc(NC(=O)Nc2cnc3cc(C)nn3c2[C@H](C)OC)cc1C#N` [Example 24, (S)-1-(5-cyano-6-methoxypyridin-3-yl)-3-(7-(1-methoxyethyl)-2-methylpyrazolo[1,5-a]pyrimidin-6-yl)urea]: the IC50 came out at 62 nM with Human IL2 promoter and 14 nM in experiment [1].
As to `CO[C@@H](C)c1c(NC(=O)Nc2cnc(C(=O)N(C)C)c(Cl)c2)cnc2cc(Cl)nn12` [Example 31, (S)-3-chloro-5-(3-(2-chloro-7-(1-methoxyethyl)pyrazolo [1,5-a]pyrimidin-6-yl)ureido)-N,N-dimethylpicolinamide], the IC50 worked out at 35 nM with Human IL2 promoter and 12 nM in experiment [1].
For `CO[C@@H](C)c1c(NC(=O)Nc2cc(Cl)cnc2OC[C@H](C)N)cnc2cc(Cl)nn12` [Example 41, 1-(2-((S)-2-aminopropoxy)-5-chloropyridin-3-yl)-3-(2-chloro-7-((S)-1-methoxyethyl)pvrazolo[1,5-a]pyrimidin-6-yl)urea] the same measures were 50 nM and 21 nM.
Turning to `CO[C@H](c1c(NC(=O)Nc2cnc(-n3nccn3)c(Cl)c2)cnc2cc(F)nn12)C(C)C` [Example 14, (S)-1-(5-chloro-6-(2H-1,2,3-triazol-2-yl)pyridin-3-yl)-3-(2-fluoro-7-(1-methoxy-2-methylpropyl)pyrazolo [1,5-a]pyrimidin-6-yl)urea], the IC50 in the experiment on Human IL2 promoter is 6 nM; in experiment [1] it was 3 nM.
On to `COCCO[C@@H](C)c1c(NC(=O)Nc2cnc(-n3nccn3)c(C(F)(F)F)c2)cnc2cc(Cl)nn12` [Example 7, (S)-1-(6-(2H-1,2,3-triazol-2-yl)-5-(trifluoromethyl)pyridin-3-yl)-3-(2-chloro-7-(1-(2-methoxyethoxy)ethyl)pyrazolo[1,5-a]pyrimidin-6-yl)urea], for which the half-maximal inhibitory concentration (IC50) with Human IL2 promoter came out at 27 nM; in experiment [1], 7 nM.
`COc1ncc(NC(=O)Nc2cnc3cc(Cl)nn3c2[C@H](C)OC)cc1C#N` [Example 16, (S)-1-(2-chloro-7-(1-methoxyethyl)pyrazolo [1,5-a]pyrimidin-6-yl)-3-(5-cyano-6-methoxypyridin-3-yl)urea]: the results for the IC50 (in the experiment with Human IL2 promoter; in experiment [1]) were 20 nM and 3 nM, respectively.
With `CO[C@@H](C)c1c(NC(=O)Nc2cc(C(C)O)nc(C(F)(F)F)c2)cnc2cc(F)nn12` (stereo partly drawn) [Example 17, 1-(2-fluoro-7-((S)-1-methoxyethyl)pyrazolo [1,5-a]pyrimidin-6-yl)-3-(2-(1-hydroxyethyl)-6-(trifluoromethyl)pyridin-4-yl)urea], the IC50 in the experiment on Human IL2 promoter turned out to be 87 nM; in experiment [1], 20 nM.
Regarding `CO[C@@H](C)c1c(NC(=O)Nc2cncc(C(F)F)c2)cnc2cc(F)nn12` [Example 29, (S)-1-(5-(difluoro-methyl)pyridin-3-yl)-3-(2-fluoro-7-(1-methoxyethyl)-pyrazolo[1,5-a]pyrimidin-6-yl)urea], the values for the IC50 (in the experiment with Human IL2 promoter; in experiment [1]) were 135 nM and 50 nM, respectively.
For the compound `CNC(=O)c1ncc(NC(=O)Nc2cnc3cc(Cl)nn3c2[C@H](C)OC)cc1Cl` [Example 34, (S)-3-chloro-5-(3-(2-chloro-7-(1-methoxyethyl)pyrazolo [1,5-a]pyrimidin-6-yl)ureido)-N-methylpicolinamide], the IC50 in the experiment on Human IL2 promoter was determined as 28 nM; in experiment [1], 7 nM.
Turning to `CO[C@@H](C)c1c(NC(=O)Nc2cnc(-n3nccn3)c(C#N)c2)cnc2cc(C)nn12` [Example 27, (S)-1-(5-cyano-6-(2H-1,2,3-triazol-2-yl)pyridin-3-yl)-3-(7-(1-methoxyethyl)-2-methylpyrazolo[1,5-a]pyrimidin-6-yl)urea], the concentration for half-maximal inhibition (IC50) stood at 35 nM in the experiment with Human IL2 promoter and 8 nM in experiment [1].
In the case of `COc1ncc(NC(=O)Nc2cnc3cc(F)nn3c2[C@H](C)OC)cc1C#N` [Example 6, (S)-1-(5-cyano-6-methoxypyridin-3-yl)-3-(2-fluoro-7-(1-methoxyethyl)pyrazolo[1,5-a]pyrimidin-6-yl)urea], the figures for the IC50 (in the experiment with Human IL2 promoter; in experiment [1]) were 41 nM and 4 nM, respectively.
Regarding `CO[C@H](c1c(NC(=O)Nc2cnc(-n3nccn3)c(C(F)(F)F)c2)cnc2cc(Cl)nn12)C(C)C` [Example 8, (S)-1-(6-(2H-1,2,3-triazol-2-yl)-5-(trifluoromethyl)pyridin-3-yl)-3-(2-chloro-7-(1-methoxy-2-methylpropyl)pyrazolo [1,5-a]pyrimidin-6-yl)urea], the figures for the IC50 (with Human IL2 promoter; in experiment [1]) were 38 nM and 2 nM, respectively.
On to `CC(=O)N1CC[C@@H](O[C@@H](C)c2c(NC(=O)Nc3cnc(-n4nccn4)c(Cl)c3)cnc3cc(Cl)nn23)C1` [Example 13, 1-(7-((S)-1-(((R)-1-acetylpyrrolidin-3-yl)oxy)ethyl)-2-chloropyrazolo[1,5-a]pyrimidin-6-yl)-3-(5-chloro-6-(2H-1,2,3-triazol-2-yl)pyridin-3-yl)urea], for which the IC50 amounted to 88 nM with Human IL2 promoter and 23 nM in experiment [1].
As for `CO[C@@H](C)c1c(NC(=O)Nc2cncc(Cl)c2)cnc2cc(Cl)nn12` [Example 35, (S)-1-(2-chloro-7-(1-methoxyethyl)pyrazolo [1,5-a]pyrimidin-6-yl)-3-(5-chloropyridin-3-yl)urea], the values for the IC50 (in the experiment on Human IL2 promoter; in experiment [1]) were 17 nM and 10 nM, respectively.
On to `COCC(OC)c1c(NC(=O)Nc2cnc(-n3nccn3)c(C#N)c2)cnc2cc(Cl)nn12` (stereo not drawn) [Example 19, 1-(2-chloro-7-(1,2-dimethoxyethyl)pyrazolo [1,5-a]pyrimidin-6-yl)-3-(5-cyano-6-(2H-1,2,3-triazol-2-yl)pyridin-3-yl)urea], for which the IC50 in the experiment with Human IL2 promoter was 56 nM; in experiment [1] it was 9 nM.
Turning to `CC(C)c1c(NC(=O)Nc2cnc(-n3nccn3)c(Cl)c2)cnc2cc(Cl)nn12` [Example 4, 1-(5-chloro-6-(2H-1,2,3-triazol-2-yl)pyridin-3-yl)-3-(2-chloro-7-isopropylpyrazolo[1,5-a]pyrimidin-6-yl)urea], in the experiment on Human IL2 promoter, the IC50 came out at 103 nM.
